Laboratory results as given in PMC4699555 (Journal of pharmaceutical sciences, 2012).
Where two headings read alike, the source gives them in different places.

Assays:
[1] = format: in vivo, Sprague-Dawley rats
[2] = cited from earlier work
[3] = cited from earlier work; remark: listed apart in the source
[4] = human studies; cited from earlier work
[5] = cited from earlier work; remark: listed apart in the source
[6] = cited from earlier work; remark: listed apart in the source

Row | Time up to which the metabolite could be detected in rat serum ([1]; after i.v. (10 mg/kg) and oral (50 mg/kg) vorinostat) | Detection of metabolite in urine ([1]; rats, after i.v. and oral vorinostat) | SMILES | Aqueous solubility [2] [µg/mL] | Elimination half-life ([3]; animal studies) | Oral bioavailability ([3]; rats, oral 10 mg/kg) [%] | Tmax ([3]; rats, oral 10 mg/kg) [min] | Elimination half-life [4] | Log partition coefficient [5] | Biopharmaceutics Classification System (BCS) class [6]
1 | up to 12 h | detected | O=C(O)CCC(=O)Nc1ccccc1 [4-anilino-4-oxobutanoic acid] |  |  |  |  |  |  | 
2 |  |  | O=C(CCCCCCC(=O)Nc1ccccc1)NO [Vorinostat, suberoylanilide hydroxamic acid] | 200 | approximately 2 hours | 11 | 18 ± 6 | approximately 2 hours | 1.9 | Class IV
